# In US20090054392A1, “NAPHTHYLPYRIMIDINE, NAPHTHYLPYRAZINE AND NAPHTHYLPYRIDAZINE ANALOGS AND THEIR USE AS AGONISTS OF THE WNT-BETA-CATENIN CELLULAR MESSAGING SYSTEM” (Wyeth, priority 2007, published 2009):
# Columns and labels:
# Dkk1-LRP5-TCF-Luciferase [1] = system: Dkk1-LRP5-TCF-Luciferase
# Dkk1-LRP5-TCF-Luciferase [2] = test: Functional Dkk1-LRP5-TCF-Luciferase Assay in U2OS Cells; conditions: for fold induction at 2 µM / fold induction at 20 µM / EC50: Homo sapiens, U2OS; for fold induction at 2 µM: read-out: B = TCF ACTIVITY/DMSO CONTROL Fold induction @ 2.0 uM, 2.0 uM compound; for fold induction at 20 µM: read-out: C = TCF ACTIVITY/DMSO CONTROL Fold induction @ 20.0 uM, 20.0 uM compound; for A = MAX FOLD Induction/DMSO CONTROL: maximum fold induction over DMSO control
Molecule,B = TCF ACTIVITY/DMSO CONTROL Fold induction @ 2.0 uM (Dkk1-LRP5-TCF-Luciferase [1]; 2 µM) [fold],C = TCF ACTIVITY/DMSO CONTROL Fold induction @ 20.0 uM (Dkk1-LRP5-TCF-Luciferase [1]; 20 µM) [fold],fold induction at 2 µM (Dkk1-LRP5-TCF-Luciferase [2]),fold induction at 20 µM (Dkk1-LRP5-TCF-Luciferase [2]),EC50 (Dkk1-LRP5-TCF-Luciferase [2]) [nM],A = MAX FOLD Induction/DMSO CONTROL (Dkk1-LRP5-TCF-Luciferase [2]) [fold]
6-{2-[4-(aminomethyl)piperidin-1-yl]pyrimidin-4-yl}-2-naphthyl acetate,1.435,1.995,–,–,–,–
CC(C)(C)OC(=O)NCC1CN(c2nccc(-c3ccc4ccccc4c3)n2)C1 [tert-butyl ({1-[4-(2-naphthyl)pyrimidin-2-yl]azetidin-3-yl}methyl)carbamate],–,–,1.41,0.46,–,–
CC(C)(C)OC(=O)NCC1CCCN(c2nccc(-c3ccc4ccccc4c3)n2)C1 (stereo not shown) [tert-butyl ({1-[4-(2-naphthyl)pyrimidin-2-yl]piperidin-3-yl}methyl)carbamate],–,–,0.91,1.94,–,–
CC(C)(C)OC(=O)NCC1CCN(c2nccc(-c3ccc4ccccc4c3)n2)C1 (stereo not shown) [tert-butyl ({1-[4-(2-naphthyl)pyrimidin-2-yl]pyrrolidin-3-yl}methyl)carbamate],–,–,1.09,0.17,–,–
CC(C)(C)OC(=O)NC1CCCN(c2nccc(-c3ccc4ccccc4c3)n2)CC1 (stereo not shown) [tert-butyl {1-[4-(2-naphthyl)pyrimidin-2-yl]azepan-4-yl}carbamate],–,–,1.34,0.33,–,–
CC(C)(C)OC(=O)NC1CCN(c2nccc(-c3ccc4ccccc4c3)n2)CC1 [tert-butyl {1-[4-(2-naphthyl)pyrimidin-2-yl]piperidin-4-yl}carbamate],–,–,0.93,1.91,–,–
CC(C)(C)OC(=O)NCCC1CN(c2nccc(-c3ccc4ccccc4c3)n2)C1 [tert-butyl {2-[1-(4-naphthalen-2-ylpyrimidin-2-yl)azetidin-3-yl]ethyl}carbamate],–,–,–,1.6,–,–
CC(C)(C)OC(=O)N[C@@H]1CCN(c2nccc(-c3ccc4ccccc4c3)n2)C1 [tert-butyl {(3R)-1-[4-(2-naphthyl)pyrimidin-2-yl]pyrrolidin-3-yl}carbamate],–,–,1.95,–,–,–
CC(C)(C)OC(=O)N[C@H]1CCN(c2nccc(-c3ccc4ccccc4c3)n2)C1 [tert-butyl {(3S)-1-[4-(2-naphthyl)pyrimidin-2-yl]pyrrolidin-3-yl}carbamate],–,–,1.51,–,–,–
"N[C@H]1CC[C@H](Nc2nccc(-c3ccc4ccccc4c3)n2)CC1 [trans-N-[4-(2-naphthyl)pyrimidin-2-yl]cyclohexane-1,4-diamine]",–,–,1.91,3.95,3700,4.730
O=CNC1CCCN(c2nccc(-c3ccc4ccccc4c3)n2)CC1 (stereo not shown) [{1-[4-(2-naphthyl)pyrimidin-2-yl]azepan-4-yl}formamide],–,–,1.5,2.05,2250,1.800
OCC1CCN(c2nccc(-c3ccc4ccccc4c3)n2)CC1 [{1-[4-(2-naphthyl)pyrimidin-2-yl]piperidin-4-yl}methanol],–,–,1.81,0.02,–,–
OCC1CCN(c2nccc(-c3ccc4ccccc4c3)n2)C1 (stereo not shown) [{1-[4-(2-naphthyl)pyrimidin-2-yl]pyrrolidin-3-yl}methanol],–,–,2.13,1.42,925,1.975
"NCC1(CN)C[C@@H]2C[C@H]1CN2c1nccc(-c2ccc3ccccc3c2)n1 [{(1S,4R)-2-[4-(2-naphthyl)pyrimidin-2-yl]-2-azabicyclo[2.2.1]heptane-5,5-diyl}dimethanamine]",–,–,1.2,–,–,–
OC[C@H]1CCCN1c1nccc(-c2ccc3ccccc3c2)n1 [{(2R)-1-[4-(2-naphthyl)pyrimidin-2-yl]pyrrolidin-2-yl}methanol],–,–,1.85,1.78,–,–
OC[C@@H]1CCCN1c1nccc(-c2ccc3ccccc3c2)n1 [{(2S)-1-[4-(2-naphthyl)pyrimidin-2-yl]pyrrolidin-2-yl}methanol],–,–,2.05,2.02,–,–
OC[C@@H]1CCCN(c2nccc(-c3ccc4ccccc4c3)n2)C1 [{(3R)-1-[4-(2-naphthyl)pyrimidin-2-yl]piperidin-3-yl}methanol],–,–,1.98,1.08,–,1.800
OC[C@H]1CCCN(c2nccc(-c3ccc4ccccc4c3)n2)C1 [{(3S)-1-[4-(2-naphthyl)pyrimidin-2-yl]piperidin-3-yl}methanol],–,–,2.8,1.81,–,1.840
